Reference: patent publication US20190070154A1, “NEW METHODS OF USE FOR AN ANTI-DIARRHEA AGENT” (Duke University, priority 2015, published 2019)

System: Wnt/β-catenin transcription
Assay: TOPFlash Reporter Assay (Wnt-3A-stimulated HEK293 cells stably transfected with p8xTOPFlash)
Format: cell-based
Conditions: for IC50: Homo sapiens, read-out: Inhibition Wnt/β-catenin transcription TopFlash IC50; for IC50 / Inhibition Wnt/β-catenin transcription TopFlash, % inhibition: HEK293 TOPFlash cells, Wnt-3A conditioned medium, 8 hour treatment
Procedure: Wnt-3A conditioned medium was prepared using L WNT-3A cells (ATCC(CRL-2647™) purchased from ATCC. Conditioned medium was obtained following published protocols (http://www.atcc.org/Products/All/CRL-2647.aspx#culturemethod) (Chen, M. Y.; Wang, J. B.; Lu, J. Y.; Bond, M. C.; Ren, X. R.; Lyerly, H. K.; Barak, L. S.; Chen, W. Biochemistry 2009, 48, 10267). HEK293 cells were stably transfected with p8×TOPFlash, Renilla luciferase plasmid pRL-TK (Promega), and pLKO.1 as previously published (Chen, M. Y.; Wang, J. B.; Lu, J. Y.; Bond, M. C.; Ren, X. R.; Lyerly, H. K.; Barak, L. S.; Chen, W. Biochemistry 2009, 48, 10267). Stably transfected cells were seeded in 100 μl of cell growth medium/well in 96-well plates at 100% confluency. Fifty microliters of Wnt-3A conditioned medium containing the chemical compounds to be tested or DMSO was added to each well. After an 8 hour treatment, the cells were washed once with PBS and lysed with 55 μl of Passive Lysis Buffer supplied in the Dual-Luciferase Reporter Assay kit (Promega, Madison, Wis.). Twenty-five microliters of cell lysate was used for measuring luciferase activity in a 96-well plate reader (FluoStar Optima, BMG Labtech, Chicago, Ill.). Data were fit using GraphPad Prism (mean±SEM, n>=2).
Data is from a single experiment unless otherwise noted. Data that is an average of two experiments is noted as “n=2” while data that is an average of three or more experiments is presented as the average plus or minus the standard error of the mean.

`CC(=O)Oc1ccccc1C(=O)Nc1ncc([N+](=O)[O-])s1` [C, reference compound] showed an IC50 of 11.4 µM.
With `CC(=O)Oc1ccccc1C(=O)Nc1ncc([N+](=O)[O-])s1` [nitazoxanide, reference compound] the “Inhibition of the Wnt/Frizzled signaling pathway (statement in words)” value was “inhibitor of the Wnt/Frizzled signaling pathway”.
Molecule `O=C(Nc1ncc(C(F)(F)F)cc1Cl)c1cc(Cl)ccc1O` [Compound 4, 5-chloro-N-(3-chloro-5-(trifluoromethyl)pyridin-2-yl)-2-hydroxybenzamide] has an IC50 of 17.4 µM.
For `O=C(Nc1ccc([N+](=O)[O-])cc1Cl)c1cc(Cl)ccc1O` [A, reference compound], the IC50 was 0.49 µM.
Work on `O=C(Nc1ccc(C(F)(F)F)cn1)c1cc(Cl)ccc1O` [Compound 3, 5-chloro-2-hydroxy-N-(5-(trifluoromethyl)pyridin-2-yl)benzamide] yielded an IC50 of 1.67 µM.
`O=C(Nc1ncc([N+](=O)[O-])s1)c1cc(Cl)ccc1O` [Compound 5, 5-chloro-2-hydroxy-N-(5-nitrothiazol-2-yl)benzamide] showed an IC50 of 8.8 µM.
`O=C(Nc1ncc([N+](=O)[O-])s1)c1ccccc1O` [B, reference compound] was tested, and the IC50 was greater than 12 µM.
For `O=C(Nc1ccc([N+](=O)[O-])cn1)c1cc(Cl)ccc1O` [Compound 2, 5-chloro-2-hydroxy-N-(5-nitropyridin-2-yl)benzamide], the “Inhibition Wnt/β-catenin transcription TopFlash, % inhibition” value (at 2 μM) was 75% inhibition at 2 μM.
For `O=C(Nc1ccncc1Cl)c1cc(Cl)ccc1O` [Compound 1, 5-chloro-N-(3-chloropyridin-4-yl)-2-hydroxybenzamide], the “Inhibition Wnt/β-catenin transcription TopFlash, % inhibition” value (at 10 μM) was 80% inhibition at 10 μM.
